This note sets out measurements from patent US20110207723A1, “NOVEL FUSED AMINODIHYDROTHIAZINE DERIVATIVE” (EISAI R&D MANAGEMENT CO., LTD., priority 2008, published 2011).

Each structure is given as a SMILES string.

This assay deals with Aβ42 production. The assay can be described thus: Quantification of Aβ peptide in culture of neurons from rat fetus brain (Aβ42 ELISA). It is filed as cell-based. Conditions: Neuron, 72 h, rat primary neuronal culture (embryonic day 18 Wistar rat cerebral cortex), medium collected three days after addition of compound, read-out: Aβ42 production reducing effect IC50. As to the method: Quantification of Aβ Peptide in Culture of Neurons from Rat Fetus Brain
Primary neuronal cultures were prepared from the cerebral cortex of embryonic day 18 Wistar rats (Charles River Japan, Yokohama, Japan). Specifically, the embryos were aseptically removed from pregnant rats under ether anesthesia. The brain was isolated from the embryo and immersed in an ice-cold L-15 medium (such as Invitrogen Corp. Cat #11415-064, Carlsbad, Calif., USA, or SIGMA L1518). The cerebral cortex was collected from the isolated brain under a stereoscopic microscope. The cerebral cortex fragments collected were enzymatically treated in an enzyme solution containing 0.25% trypsin (Invitrogen Corp. Cat #15050-065, Carlsbad, Calif., USA) and 0.01% DNase (Sigma D5025, St. Louis, Mo., USA) at 37° C. for 30 minutes to disperse the cells. Here, the enzymatic reaction was stopped by adding inactivated horse serum to the solution. The enzymatically treated solution was centrifuged at 1,500 rpm for five minutes to remove the supernatant. 5 to 10 ml of a medium was added to the resulting cell mass. Neurobasal medium (Invitrogen Corp. Cat #21103-049, Carlsbad, Calif., USA) supplemented with 2% B27 supplement (Invitrogen Corp. Cat #17504-044, Carlsbad, Calif., USA), 25 μM 2-mercaptoethanol (2-ME, WAKO Cat #139-06861, Osaka, Japan), 0.5 mM L-glutamine (Invitrogen Corp. Cat #25030-081, Carlsbad, Calif., USA), and Antibiotics-Antimycotics (Invitrogen Corp. Cat #15240-062, Carlsbad, Calif., USA) was used as the medium (Neurobasal/B27/2-ME). However, the above Neurobasal medium not supplemented with 2-ME (Neurobasal/B27) was used for the assay. The cells were redispersed by mild pipetting of the cell mass to which the medium was added. The cell dispersion was filtered through a 40-μm nylon mesh (Cell Strainer, Cat #35-2340, Becton Dickinson Labware, Franklin Lakes, N.J., USA) to remove the remaining cell mass, and thus a neuronal cell suspension was obtained. The neuronal cell suspension was diluted with the medium and then plated in a volume of 100 μl/well at an initial cell density of 5×10^5 cells/cm^2 in a 96-well polystyrene culture plate pre-coated with poly-L or D-lysine (Falcon Cat #35-3075, Becton Dickinson Labware, Franklin Lakes, N.J., USA coated with poly-L-lysine using the method shown below, or BIOCOAT™ cell environments Poly-D-lysine cell ware 96-well plate, Cat #35-6461, Becton Dickinson Labware, Franklin Lakes, N.J., USA). Poly-L-lysine coating was carried out as follows. 100 μg/ml of a poly-L-lysine (SIGMA P2636, St. Louis, Mo., USA) solution was aseptically prepared with a 0.15 M borate buffer (pH 8.5). […] of the solution was added to the 96-well polystyrene culture plate and incubated at room temperature for one or more hours or at 4° C. overnight or longer. Thereafter, the coated 96-well polystyrene culture plate was washed with sterile water four or more times, and then dried or rinsed with, for example, sterile PBS or medium, and used for cell plating. The plated cells were cultured in the culture plate at 37° C. in 5% CO2-95% air for one day. Then, the total amount of the medium was replaced with a fresh Neurobasal/B27/2-ME medium, and then the cells were cultured for further three days.
The drug was added to the culture plate on Day 4 of culture as follows. The total amount of the medium was removed from the wells, and 180 μl/well of Neurobasal medium not containing 2-ME and containing 2% B-27 (Neurobasal/B27) was added thereto. A solution of the test compound in dimethyl sulfoxide (hereinafter abbreviated as DMSO) was diluted with Neurobasal/B27 to a concentration 10-fold higher than the final concentration. 20 μl/well of the dilution was added to and sufficiently mixed with the medium. The final DMSO concentration was 1% or less. Only DMSO was added to the control group.
The cells were cultured for three days after addition of the compound, and the total amount of the medium was collected. […]
A general note: ELISA stands for enzyme-linked immunosorbent assay.
As for `NC1=N[C@@]2(c3cc(NC(=O)c4ccc(Cl)cn4)ccc3OC(F)(F)F)COCC[C@H]2CS1` (single isomer, unassigned) [Example 5, N-[3-((8S*,8aS*)-2-amino-4,4a,5,6-tetrahydro-7-oxa-3-thia-1-azanaphthalen-8a-yl)-4-trifluoromethoxyphenyl]-5-chloropyridine-2-carboxamide], the half-maximal inhibitory concentration (IC50) was determined as 58 nM.

`NC1=N[C@@]2(c3cc(NC(=O)c4ccc(Cl)cn4)ccc3F)COCC[C@H]2CS1` (single isomer, unassigned) [Example 49, N-[3-((4aR*,8aS*)-2-amino-4,4a,5,6-tetrahydro-7-oxa-3-thia-1-azanaphthalen-8a-yl)-4-fluorophenyl]-5-chloropyridine-2-carboxamide]: the IC50 is 2 nM.

On to `NC1=N[C@@]2(c3cc(NC(=O)c4ccc(Br)cn4)ccc3F)COCC[C@H]2CS1` (single isomer, unassigned) [Example 50, N-[3-((4aR*,8aS*)-2-amino-4,4a,5,6-tetrahydro-7-oxa-3-thia-1-azanaphthalen-8a-yl)-4-fluorophenyl]-5-bromopyridine-2-carboxamide], for which the IC50 was 2 nM.

Regarding `NC1=N[C@@]2(c3cc(NC(=O)c4ncc(F)cc4F)ccc3F)COCC[C@H]2CS1` (single isomer, unassigned) [Example 51, N-[3-((4aR*,8aS*)-2-amino-4,4a,5,6-tetrahydro-7-oxa-3-thia-1-azanaphthalen-8a-yl)-4-fluorophenyl]-3,5-difluoropyridine-2-carboxamide], the IC50 is 6 nM.

Take `NC1=N[C@@]2(c3cc(NC(=O)c4ncc(Cl)cc4Cl)ccc3F)COCC[C@H]2CS1` (single isomer, unassigned) [Example 52, N-[3-((4aR*,8aS*)-2-amino-4,4a,5,6-tetrahydro-7-oxa-3-thia-1-azanaphthalen-8a-yl)-4-fluorophenyl]-3,5-dichloropyridine-2-carboxamide]: the IC50 was 2 nM.

As to `NC1=N[C@@]2(c3cc(NC(=O)c4ccc(F)cn4)ccc3F)COCC[C@H]2CS1` (single isomer, unassigned) [Example 53, N-[3-((4aR*,8aS*)-2-amino-4,4a,5,6-tetrahydro-7-oxa-3-thia-1-azanaphthalen-8a-yl)-4-fluorophenyl]-5-fluoropyridine-2-carboxamide], the IC50 is 5.6 nM.

As to `NC1=N[C@@]2(c3cc(NC(=O)c4ncc(Br)cc4Br)ccc3F)COCC[C@H]2CS1` (single isomer, unassigned) [Example 54, N-[3-((4aR*,8aS*)-2-amino-4,4a,5,6-tetrahydro-7-oxa-3-thia-1-azanaphthalen-8a-yl)-4-fluorophenyl]-3,5-dibromopyridine-2-carboxamide], the IC50 was determined as 2 nM.

Consider `NC1=N[C@@]2(c3cc(NC(=O)c4ccc(C(F)(F)F)cn4)ccc3F)COCC[C@H]2CS1` (single isomer, unassigned) [Example 55, N-[3-((4aR*,8aS*)-2-amino-4,4a,5,6-tetrahydro-7-oxa-3-thia-1-azanaphthalen-8a-yl)-4-fluorophenyl]-5-trifluoromethylpyridine-2-carboxamide], for which the half-maximal inhibitory concentration (IC50) is 1.4 nM.

As for `NC1=N[C@@]2(c3cc(NC(=O)c4ccc(C(F)F)cn4)ccc3F)COCC[C@H]2CS1` (single isomer, unassigned) [Example 56, N-[3-((4aR*,8aS*)-2-amino-4,4a,5,6-tetrahydro-7-oxa-3-thia-1-azanaphthalen-8a-yl)-4-fluorophenyl]-5-difluoromethylpyridine-2-carboxamide], the IC50 turned out to be 3 nM.

Turning to `NC1=N[C@@]2(c3cc(NC(=O)c4cnc(C(F)F)cn4)ccc3F)COCC[C@H]2CS1` (single isomer, unassigned) [Example 57, N-[3-((4aR*,8aS*)-2-amino-4,4a,5,6-tetrahydro-7-oxa-3-thia-1-azanaphthalen-8a-yl)-4-fluorophenyl]-5-difluoromethylpyrazine-2-carboxamide], the IC50 worked out at 2 nM.

In the case of `NC1=N[C@@]2(c3cc(NC(=O)c4ccc(OC(F)F)cn4)ccc3F)COCC[C@H]2CS1` (single isomer, unassigned) [Example 58, N-[3-((4aR*,8aS*)-2-amino-4,4a,5,6-tetrahydro-7-oxa-3-thia-1-azanaphthalen-8a-yl)-4-fluorophenyl]-5-difluoromethoxypyridine-2-carboxamide], the IC50 was 4 nM.

For the compound `N#Cc1ccc(C(=O)Nc2csc(C34COCCC3CSC(N)=N4)c2)nc1` (stereo in doubt) [Example 64, N-[5-((4aR*,8aS*)-2-amino-4,4a,5,6-tetrahydro-7-oxa-3-thia-1-azanaphthalen-8a-yl)thiophen-3-yl]-5-cyanopyridine-2-carboxamide], the IC50 was 14 nM.

Consider `N#Cc1ccc(C(=O)Nc2ccc(F)c([C@]34COC[C@@H](F)[C@H]3CSC(N)=N4)c2)nc1` [Example 16, N-[3-((4aS,5S,8aS)-2-amino-5-fluoro-4,4a,5,6-tetrahydro-7-oxa-3-thia-1-azanaphthalen-8a-yl)-4-fluorophenyl]-5-cyanopyridine-2-carboxamide], for which the IC50 worked out at 1.1 nM.

For `NC1=N[C@@]2(c3cc(NC(=O)c4cnc(C(F)F)cn4)ccc3F)COC[C@@H](F)[C@H]2CS1` [Example 17, N-[3-((4aS,5S,8aS)-2-amino-5-fluoro-4,4a,5,6-tetrahydro-7-oxa-3-thia-1-azanaphthalen-8a-yl)-4-fluorophenyl]-5-difluoromethylpyrazine-2-carboxamide], the IC50 stood at 4 nM.

Turning to `NC1=N[C@@]2(c3cc(NC(=O)c4ccc(Cl)cn4)ccc3F)COC[C@@H](F)[C@H]2CS1` [Example 18, N-[3-((4aS,5S,8aS)-2-amino-5-fluoro-4,4a,5,6-tetrahydro-7-oxa-3-thia-1-azanaphthalen-8a-yl)-4-fluorophenyl]-5-chloropyridine-2-carboxamide], the IC50 amounted to 7 nM.

In the case of `NC1=N[C@@]2(c3cc(NC(=O)c4ccc(C(F)(F)F)cn4)ccc3F)COC[C@@H](F)[C@H]2CS1` [Example 19, N-[3-((4aS,5S,8aS)-2-amino-5-fluoro-4,4a,5,6-tetrahydro-7-oxa-3-thia-1-azanaphthalen-8a-yl)-4-fluorophenyl]-5-trifluoromethylpyridine-2-carboxamide], the half-inhibitory concentration (IC50) came out at 2 nM.

For `NC1=N[C@@]2(c3cc(NC(=O)c4ccc(OC(F)F)cn4)ccc3F)COC[C@@H](F)[C@H]2CS1` [Example 20, N-[3-((4aS,5S,8aS)-2-amino-5-fluoro-4,4a,5,6-tetrahydro-7-oxa-3-thia-1-azanaphthalen-8a-yl)-4-fluorophenyl]-5-difluoromethoxypyridine-2-carboxamide], the IC50 was 9 nM.

Consider `NC1=N[C@@]2(c3cc(NC(=O)c4cnc(OC(F)F)cn4)ccc3F)COC[C@@H](F)[C@H]2CS1` [Example 22, N-[3-((4aS,5S,8aS)-2-amino-5-fluoro-4,4a,5,6-tetrahydro-7-oxa-3-thia-1-azanaphthalen-8a-yl)-4-fluorophenyl]-5-difluoromethoxypyrazine-2-carboxamide], for which the IC50 turned out to be 4 nM.

With `NC1=N[C@@]2(c3cc(NC(=O)c4ccc(Cl)cn4)ccc3F)CO[C@@H](CO)C[C@H]2CS1` [Example 33, N-[3-((4aR,6R,8aS)-2-amino-6-hydroxymethyl-4,4a,5,6-tetrahydro-7-oxa-3-thia-1-azanaphthalen-8a-yl)-4-fluorophenyl]-5-chloropyridine-2-carboxamide], the IC50 is 1.1 nM.

By IC50 is commonly meant the concentration at which inhibition is half-maximal.
